Laboratory results published in PMC6515479, “An Investigation on Glucuronidation Metabolite Identification, Isozyme Contribution, and Species Differences of GL-V9 In Vitro and In Vivo” (Molecules, 2019).

What was measured:
Type in all cases: in vitro ADME
Details in all cases: GL-V9 0.5, 1, 5 μM, 37 °C, 1 h
rUGT1A3 = molecular target: T1, rUGT1A3 (Homo sapiens, UniProt P35503); test: UGT phenotyping of GL-V9 glucuronidation, rUGT1A3
T1 construct: purchased Corning (Woburn, MA, USA)
T1 sequence (P35503 29-534): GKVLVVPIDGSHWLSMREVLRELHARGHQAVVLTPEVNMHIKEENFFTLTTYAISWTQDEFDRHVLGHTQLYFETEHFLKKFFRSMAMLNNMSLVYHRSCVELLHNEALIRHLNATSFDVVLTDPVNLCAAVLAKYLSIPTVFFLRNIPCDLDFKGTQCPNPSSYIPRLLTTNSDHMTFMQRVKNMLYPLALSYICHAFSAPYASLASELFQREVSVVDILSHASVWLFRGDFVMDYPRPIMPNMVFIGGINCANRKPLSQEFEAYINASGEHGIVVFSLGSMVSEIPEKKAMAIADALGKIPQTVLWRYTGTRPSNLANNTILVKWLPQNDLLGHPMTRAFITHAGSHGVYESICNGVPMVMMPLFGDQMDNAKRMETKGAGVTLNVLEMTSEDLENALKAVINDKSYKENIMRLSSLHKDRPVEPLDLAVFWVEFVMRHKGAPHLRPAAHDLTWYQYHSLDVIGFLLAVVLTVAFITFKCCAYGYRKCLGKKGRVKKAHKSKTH
Experimental: (§1) The composition of the incubation system (200 μL) contained liver microsomes of different species (0.1 mg protein/mL), 5 mM saccharolactone (D-saccharic acid 1,4-lactone monohydrate), 10 mM MgCl2, alamethicin (50 μg/mg protein), Tris-HCl buffer (50 mM, pH 7.4) and GL-V9 (1 μM). After 5 min of preincubation at 37 °C, UDPGA (5 mM) was added to initiate the phase II reaction. Control incubation samples were performed without UDPGA or without substrates (GL-V9). The reaction was terminated by addition of ice-cold methanol (three volumes) after incubation for 1 h at 37 °C. Samples were vortexed, centrifuged at 21,500× g for 10 min and then stored at 4 °C until HPLC-UV-TripleTOF analysis. To confirm that these metabolites are conjugates resulting from glucuronidation reaction, enzymatic hydrolysis of samples was processed. β-glucuronidase (100 KU, Sigma) was added and the hydrolysis was performed overnight at 37 °C. The control samples were carried out without β-glucuronidase under the same condition.
(§2) Twelve human recombinant UGT isoforms (rUGT1A1, rUGT1A3, rUGT1A4, rUGT1A6, rUGT1A7, rUGT1A8, rUGT1A9, rUGT1A10, rUGT2B4, rUGT2B7, rUGT2B15, and rUGT2B17) were employed to identify the main UGT enzyme(s) responsible for glucuronidation of GL-V9 under mixture conditions as described in Section 4.3. […]

rUGT1A4 = molecular target: T2, rUGT1A4 (Homo sapiens, UniProt P22310); test: UGT phenotyping of GL-V9 glucuronidation, rUGT1A4
T2 construct: purchased Corning (Woburn, MA, USA)
T2 sequence (P22310 29-534): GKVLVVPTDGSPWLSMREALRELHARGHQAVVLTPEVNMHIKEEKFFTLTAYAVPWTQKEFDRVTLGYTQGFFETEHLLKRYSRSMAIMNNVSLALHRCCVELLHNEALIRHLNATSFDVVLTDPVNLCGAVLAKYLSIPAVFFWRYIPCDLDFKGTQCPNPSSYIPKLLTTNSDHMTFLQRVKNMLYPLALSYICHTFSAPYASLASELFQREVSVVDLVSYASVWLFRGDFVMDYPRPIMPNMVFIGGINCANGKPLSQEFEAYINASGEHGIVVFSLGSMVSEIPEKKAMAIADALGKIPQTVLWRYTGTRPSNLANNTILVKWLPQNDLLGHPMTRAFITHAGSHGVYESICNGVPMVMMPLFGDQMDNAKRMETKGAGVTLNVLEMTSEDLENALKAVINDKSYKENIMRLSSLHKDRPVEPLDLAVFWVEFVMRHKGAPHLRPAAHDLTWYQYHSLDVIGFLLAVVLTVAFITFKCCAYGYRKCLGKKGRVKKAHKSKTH
Experimental: as §1, §2

rUGT2B15 = molecular target: T3, rUGT2B15 (Homo sapiens, UniProt P54855); test: UGT phenotyping of GL-V9 glucuronidation, rUGT2B15
T3 construct: purchased Corning (Woburn, MA, USA)
T3 sequence (P54855 24-530): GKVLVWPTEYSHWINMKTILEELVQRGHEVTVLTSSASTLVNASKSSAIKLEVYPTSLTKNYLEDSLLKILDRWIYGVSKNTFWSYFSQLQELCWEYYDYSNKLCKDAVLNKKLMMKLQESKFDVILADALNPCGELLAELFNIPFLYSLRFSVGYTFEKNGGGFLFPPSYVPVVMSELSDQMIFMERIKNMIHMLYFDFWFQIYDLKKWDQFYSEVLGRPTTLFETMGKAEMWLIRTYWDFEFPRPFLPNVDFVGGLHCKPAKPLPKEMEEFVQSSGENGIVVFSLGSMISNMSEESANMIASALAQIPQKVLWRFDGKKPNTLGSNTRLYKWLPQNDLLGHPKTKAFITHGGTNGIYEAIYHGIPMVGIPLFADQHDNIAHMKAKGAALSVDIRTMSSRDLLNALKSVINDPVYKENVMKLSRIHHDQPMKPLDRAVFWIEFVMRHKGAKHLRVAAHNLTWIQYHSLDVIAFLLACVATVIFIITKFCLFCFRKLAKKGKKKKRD
Experimental: as §1, §2

- Metabolism rate (glucuronidation) (rUGT1A3): too low to be biologically relevant
- Metabolism rate (glucuronidation) (rUGT1A4): too low to be biologically relevant
- Catalytic activity in the production of 5-O-glucuronide GL-V9 (rUGT2B15): did not show apparent catalytic activity
Compound: COc1c(OCCCCN2CCCC2)cc(O)c2c(=O)cc(-c3ccccc3)oc12 [GL-V9]
